Experimental findings from PubChem BioAssay (NCI) are described below.

Common to all, as to test: NCI tumour cell line growth inhibition, 48 h
The subject of assay [1] is SK-MEL-2 melanoma.
Assay [2] relates to A498 renal.
The test system of assay [3] is SF-295 CNS.
For assay [4], the system named is OVCAR-4 ovarian.
Assay [5] concerns HT29 colon.
Assay [6] relates to NCI-H23 lung.
Assay [7] has as its system CAKI-1 renal.
Assay [8] relates to SNB-75 CNS.
For assay [9], the system named is DU-145 prostate.
For assay [10], the system named is UACC-257 melanoma.
Assay [11] deals with HOP-92 NSCLC.

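Exposure lasted 48 hours, with cells grown in 96-well plates and compounds tested at five concentrations. TGI: concentration producing complete growth inhibition.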

On to `COc1cc(OC)nc(-n2c(N)c(C(=O)O)c3ccc([N+](=O)[O-])cc3c2=O)n1`, for which the TGI in assay [1], in assay [2], in [3], in assay [4], in assay [5] and in assay [6] was greater than 100 µM throughout. Besides, the TGI in assay [7], in [8] and in assay [9] was greater than 100 µM throughout.
For the compound `C[C@H]1S[C@H](c2c(F)cccc2F)n2c1nc1ccccc12`, the TGI in [1], in assay [3], in assay [10], in assay [4], in [5] and in [6] was greater than 100 µM throughout. The TGI in assay [7], in assay [8] and in assay [9] was greater than 100 µM in each case.
Take `CC12CCC(=O)[C@@]1(C)CCCC2O` (stereo not given in full): the TGI in assay [1], in assay [3], in [10], in [4], in assay [5] and in assay [6] was greater than 100 µM each time. The TGI in assay [7], in [8] and in assay [9] was greater than 100 µM each time.
`N[C@H]1CCN(c2c(F)cc3c(=O)c(C(=O)O)cn4c3c2Oc2c-4ccc3c2ccc2ccccc23)C1`: the TGI in [1] was greater than 100 µM; in assay [11] it was greater than 49.6 µM; in assay [2], greater than 100 µM; in assay [3], greater than 100 µM; in assay [4] it was greater than 33.2 µM; in assay [5], greater than 100 µM. The TGI was greater than 71.7 µM in assay [6], greater than 25.5 µM in assay [7] and greater than 62.7 µM in assay [9].
As to `COc1cc2c(cc1O)C(=O)O[C@@H]1CC=C3CCN(C)[C@H]3[C@H]21`, the TGI in assay [1], in assay [2], in assay [3], in assay [10], in assay [4] and in assay [5] was greater than 25 µM throughout. For the same compound, the TGI in assay [6], in [7], in assay [8] and in assay [9] was greater than 25 µM each time.
Take `CN1N=C(c2ccccc2)c2cc(Cl)ccc2N=C1N/N=C/c1ccc(N(C)C)cc1`: the TGI in assay [3], in [10], in assay [4], in [5], in [6] and in assay [7] was greater than 100 µM in each case. Moreover, the TGI in [8] and in assay [9] was greater than 100 µM in each case.
`CCOC(=O)/C(=C\c1c(C)[nH]c2ccccc12)P(=O)(OCC)OCC`: the TGI in assay [2], in [3], in assay [10], in assay [4], in assay [5] and in assay [6] was greater than 100 µM each time. The TGI in assay [7], in assay [8] and in [9] was greater than 100 µM throughout.
Turning to `CC(=O)OCC1=CC2CCC3C(C)(CCC[C@]3(C)COC(C)=O)C23CC[C@H]1C3` (stereo not given in full), the TGI is greater than 100 µM in assay [1]; 90.2 µM in [11]; greater than 100 µM in assay [2]; greater than 100 µM in assay [3]; greater than 100 µM in assay [10]; greater than 100 µM in assay [4]. Further, the TGI in assay [5], in assay [6], in assay [7] and in assay [8] was greater than 100 µM throughout.
`COc1cc2c(cc1OC)[C@H]1C(COC(=O)Nc3ccccc3)CN1CC2` (stereo not given in full): the TGI in assay [1], in assay [11], in assay [2], in assay [3], in assay [4] and in assay [5] was greater than 100 µM each time. Also, the TGI in [6] was greater than 100 µM; in assay [7] it was greater than 100 µM; in assay [8] it was 79.3 µM.
Take `O=Cc1ccc(-c2ccc(S(=O)(=O)O)cc2)o1`: the TGI in assay [1], in [2], in assay [3], in assay [10], in assay [5] and in assay [6] was greater than 100 µM each time. Besides, the TGI in assay [7] and in [9] was greater than 100 µM in each case.
In the case of `O=C(NCc1ccccc1)C1C(=O)C(=O)N(Cc2ccccc2)C1=O` (stereo not given), the TGI in assay [1], in [11], in [2], in assay [3], in assay [10] and in assay [4] was greater than 100 µM in each case. Besides, the TGI in [5], in assay [6], in assay [7] and in [8] was greater than 100 µM throughout.
Take `COC(=O)/C(=N\N)C(C(=O)C(=O)Nc1nc(=S)[nH][nH]1)c1nc2ccc([N+](=O)[O-])cc2[nH]c1=O` (stereo not given): the TGI in [1], in assay [11], in assay [2], in assay [3], in [10] and in assay [4] was greater than 100 µM in each case. Further, the TGI in assay [5], in assay [6], in [7] and in assay [8] was greater than 100 µM in each case.
With `CCC(=O)CCC1=Nc2nnc(CCCCc3nnc4n3C(=O)C(CCC(=O)CC)=N4)n2C1=O`, the TGI in [1], in assay [11], in assay [2], in assay [3], in [10] and in assay [4] was greater than 100 µM throughout. The TGI in assay [5], in assay [6], in assay [7] and in [8] was greater than 100 µM throughout.
In the case of `C[C@]12CC[C@H](O)CC1=CC[C@@H]1[C@@H]2CC[C@]2(C)NC(=O)/C(=C\c3ccccc3)C[C@@H]12`, the TGI in assay [1] worked out at 31.8 µM; in [2] it was 29.2 µM; in assay [3], 33.2 µM; in [10], 48.6 µM; in assay [4] it was 60.8 µM; in assay [5], 31.5 µM. Besides, the TGI in assay [6] stood at 40.7 µM; in assay [7], 73.1 µM; in assay [8] it was 48.5 µM; in assay [9], 33.5 µM.
